Source: patent US20080255206A1, “Rxr Agonists and Antagonists, Alone or in Combination with Ppar Ligands, in the Treatment of Metabolic and Cardiovascular Diseases” (priority 2005, published 2008)
pEC50: −log10 of the molar value. Each block holds one compound with its values, some of them ahead of it.

How the values were obtained:
[1] = target: T1, RARβ (Homo sapiens, UniProt P10826); experiment: Retinoid activation assay, RARβ (COS-1 cells, SeAP reporter); format: cell-based; details: read-out: Activation EC50 RAR β
T1 sequence (P10826 183-417 limits assumed): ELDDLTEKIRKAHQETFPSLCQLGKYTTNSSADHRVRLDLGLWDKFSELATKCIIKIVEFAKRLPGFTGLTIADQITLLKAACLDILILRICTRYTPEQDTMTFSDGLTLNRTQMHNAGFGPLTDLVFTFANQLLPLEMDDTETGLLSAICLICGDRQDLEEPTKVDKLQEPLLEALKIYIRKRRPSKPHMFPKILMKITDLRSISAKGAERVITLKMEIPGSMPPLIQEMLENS
Procedure: (§1) Chimeric RAR cDNAs are used for transfection which contain the DNA binding region of the estrogen receptor. As reporter system, the SeAp (secreted alkaline phosphatase) gene under control of the vitellogenin estrogen response element fused to the herpes simplex thymidinkinase promoter (vit-TK-SeAP) is used. The galactosidase expression vector pCH110 serves to correct for variation in transfection efficiency. […] At the end of the incubation, the cell supernatants are assayed for SeAP activity. Results are given as EC50 (nM), the concentration leading to half-maximal activation.

[2] = test system: healthy, non-inflamed human skin; experiment: Topical application on healthy human skin, clinical pilot trial; format: in vivo; set-up: key to Skin inflammation score (scale 0-4): 0: no signs or symptoms of skin inflammation; 1: slight erythema, desquamation and pruritus; 2: moderate erythema, desquamation and pruritus; 3: marked erythema, desquamation, pruritus/burning; 4: severe erythema, desquamation, pruritus, burning or even pain, edema, exsudation, ulceration; details: for Skin inflammation score (scale 0-4): day 17; for Irritation or inflammation of the skin: human volunteer, 1% concentration daily to the skin for 2 weeks
Text: In a clinical pilot trial on one healthy volunteer compound 15 is applied epicutaneously in a concentration of 1% for its inflammation potential compared to that of the strong inflammation inducing agent 9-cis RA in concentrations of 0.1%, 0.3% and 1%.
The compounds are solved or suspended in ethanol/propylene glycol (1:1). They are applied epicutaneously twice daily, 7 days a week, for two concecutive weeks. The site of application is an area of 3×3=9 cm^2 on the abdominal skin. The volume is 0.1 ml per application.
The following signs and symptoms of skin inflammation are recorded: Erythema, desquamation (scaling), pruritus, burning, pain, exsudation, edema, ulceration. They are classified on a scale of: • 0=no signs or symptoms of skin inflammation • 1=slight erythema, desquamation and pruritus • 2=moderate erythema, desquamation and pruritus • 3=marked erythema, desquamation, pruritus/burning • 4=severe erythema, desquamation, pruritus, burning or even pain, edema, exsudation, ulceration
Treatment period lasts from day 1 to 14, the post-treatment observation period from day 15 to day 28.

[3] = test system: skin inflammation induced by topical 9-cis RA; experiment: Preventive and therapeutic effect on 9-cis RA-induced skin inflammation, human volunteer study; format: in vivo
Procedure: In this pilot clinical trial on one healthy volunteer, the substance 9-cis RA and compound 15 are administered epicutaneously. The inflammation-inducing agent 9-cis RA is used in a concentration of 0.3%. The RXR antagonist compound 15 is applied in a concentration of 1%. The compounds are solved in ethanol/propylene glycol (1:1) and administered twice daily. The site of application is the abdominal skin, with various areas of 3×3=9 cm^2. Volume per application is 0.1 ml.
The following three clinical settings at different sites are chosen: • 1. Induction of skin inflammation by 9-cis RA 9-cis RA is administered as a 0.3% solution twice daily from day 1 to day 14. The vehicle is administered from day 15 to disappearance of skin inflammation. • 2. Prevention of 9-cis RA-induced skin inflammation by RXR antagonist Compound 15 9-cis RA solution of 0.3% is administered twice daily from day 1 to day 14, each time followed subsequently by application of compound 15 as a 1% solution. • 3. Therapy of 9-cis RA-induced skin inflammation by RXR antagonist compound 15 9-cis RA solution of 0.3% is administered twice daily from day 1 to day 14. Compound 15 as a 1% solution is administered from day 15 until disappearance of skin inflammation.
The signs and symptoms of skin inflammation are recorded on a 0-4 scale, as described in example 21. The evaluation of the anti-inflammatory effect is based on the daily determination of the inflammation score (scale 0-4).
The following parameters serve as criteria for evaluation of the effect of 9-cis RA, the preventive effect of compound 15 and the therapeutic effect of compound 15. • 1. Sum of the daily inflammation scores from day 1 to day 28. Total inflammation score. • 2. Sum of the daily inflammation scores from day 15 to disappearance of skin inflammation. • 3. Time in days from day 15 to disappearance of skin inflammation.

[4] = target: T2, RARα (Homo sapiens, UniProt P10276); experiment: Retinoid activation assay, RARα (COS-1 cells, SeAP reporter); format: cell-based; details: read-out: Activation EC50 RAR α
T2 sequence (P10276 183-417 limits assumed): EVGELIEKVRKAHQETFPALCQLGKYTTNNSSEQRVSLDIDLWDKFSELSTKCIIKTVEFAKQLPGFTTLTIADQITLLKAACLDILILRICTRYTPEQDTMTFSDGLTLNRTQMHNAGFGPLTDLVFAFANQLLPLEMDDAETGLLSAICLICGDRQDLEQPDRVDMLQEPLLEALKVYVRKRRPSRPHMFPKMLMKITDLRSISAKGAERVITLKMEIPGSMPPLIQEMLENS
Procedure: as §1

[5] = 9-cis RA 0.3% day 1 to day 14, then vehicle
[6] = Prevention: 9-cis RA 0.3% and compound 15 1%, both day 1 to day 14
[7] = Therapy: 9-cis RA 0.3% day 1 to day 14, compound 15 1% day 15 to disappearance of inflammation

pEC50 [1]: 5.92
SMILES: CC(/C=C/[C@@H]1C[C@@H]1c1ccc2c(c1)C(C)(C)CCC2(C)C)=C\C(=O)O (racemic) [Compound 4, (2E,4E)-3-methyl-5-[(1RS,2RS)-2-(5,5,8,8-tetramethyl-5,6,7,8-tetrahydro-naphthalen-2-yl)-cyclopropyl]-penta-2,4-dienoic acid]

SMILES: CC1=C(/C=C/C(C)=C\C=C\C(C)=C\C(=O)O)C(C)(C)CCC1 [9-cis RA, 9-cis retinoic acid, reference compound]
Skin inflammation score (scale 0-4) ([2]; 0.1% epicutaneously twice daily day 1-14): 1
Skin inflammation (in words) ([2]; 0.1% epicutaneously twice daily, days 12, 13 and 14): moderate inflammation
Skin inflammation score (scale 0-4) ([2]; 0.3% epicutaneously twice daily day 1-14): 2
Skin inflammation (in words) ([2]; 0.3% epicutaneously twice daily, days 12, 13 and 14): moderate inflammation
Skin inflammation score (scale 0-4) ([2]; 1% epicutaneously twice daily day 1-14): 3
Skin inflammation (in words) ([2]; 1.0% epicutaneously twice daily, days 12, 13 and 14): marked inflammation
Sum of daily inflammation scores from day 15 to disappearance of inflammation [3, 5]: 14
Sum of daily inflammation scores, day 1 to day 28. Total inflammation score [3, 5]: 18
Time in days from day 15 to disappearance of inflammation [3, 5]: 13 days

SMILES: CC1=C(/C=C/C2=C(/C=C/C(C)=C/C(=O)O)CCCCC2)C(C)(C)CCC1 [Compound 1, (2E,4E)-3-methyl-5-[2-[(E)-2-(2,6,6-trimethyl-1-cyclohexen-1-yl)ethenyl]-1-cyclohepten-1-yl]-2,4-pentadienoic acid]
Irritation or inflammation of the skin [2]: does not induce any irritation or inflammation of the skin

pEC50 [4]: 6.77
pEC50 [1]: 7.07
SMILES: CC1=C(/C=C/c2sccc2/C=C/C(C)=C/C(=O)O)C(C)(C)CCC1 [Compound 5, (2E,4E)-3-Methyl-5-[2-[(E)-2-(2,6,6-trimethyl-1-cyclohexen-1-yl)ethenyl]-3-thienyl]-2,4-pentadienoic acid]

SMILES: CC(/C=C/c1sccc1-c1ccc2c(c1)C(C)(C)CCC2(C)C)=C\C(=O)O [Compound 9]
pEC50 [4]: 5.64
pEC50 [1]: 6.44

pEC50 [4]: 6.43
pEC50 [1]: 7.08
SMILES: CC(/C=C/C1=C(c2ccc3c(c2)C(C)(C)CCC3(C)C)CCC1)=C\C(=O)O [Compound 12, (2E,4E)-3-Methyl-5-[2-(5,5,8,8-tetramethyl-5,6,7,8-tetrahydro-naphthalen-2-yl)-cyclopent-1-enyl]-penta-2,4-dienoic acid]

pEC50 [4]: 6.82
pEC50 [1]: 7.05
SMILES: CC1=C(/C=C/C2=C(/C=C/C(C)=C/C(=O)O)CCC2)C(C)(C)CCC1 [Compound 14, (2E,4E)-3-Methyl-5-[2-[(E)-2-(2,6,6-trimethyl-1-cyclohexen-1-yl)ethenyl]-1-cyclopenten-1-yl]-2,4-pentadienoic acid]

SMILES: CCCCOc1c(\C(C)=C/C=C/C(C)=C/C(=O)O)cc(C(C)(C)C)cc1C(C)(C)C [Compound 15, (2E,4E,6Z)-7-[2-butoxy-3,5-bis(1,1-dimethylethyl)phenyl]-3-methyl-2,4,6-octatrienoic acid]
Skin inflammation (in words) ([2]; 1% epicutaneously twice daily day 1-14, observation to day 28): well tolerated with no skin inflammation
Skin inflammation (in words) ([2]; 1% epicutaneously twice daily day 1-14, observation to day 28, listed as Compound A): does not induce any objective or subjective symptoms
Irritation or inflammation of the skin [2]: does not induce any irritation or inflammation of the skin
Sum of daily inflammation scores from day 15 to disappearance of inflammation [3, 6]: 5
Sum of daily inflammation scores, day 1 to day 28. Total inflammation score [3, 6]: 11
Time in days from day 15 to disappearance of inflammation [3, 6]: 6 days
Sum of daily inflammation scores from day 15 to disappearance of inflammation [3, 7]: 5
Sum of daily inflammation scores, day 1 to day 28. Total inflammation score [3, 7]: 9
Time in days from day 15 to disappearance of inflammation [3, 7]: 6 days

pEC50 [4]: 7.27
pEC50 [1]: 8.00
SMILES: CCC1(CC)CCC(C)(C)c2cc(\C(C)=C/C=C/C(C)=C/C(=O)O)ccc21 [Compound 24, (2E,4E,6Z)-7-(5,5-Diethyl-8,8-dimethyl-5,6,7,8-tetrahydro-naphthalen-2-yl)-3-methyl-octa-2,4,6-trienoic acid]
